Measured values from US20230183207A1 (priority 2020, published 2023).

Legend:
[1] = test system: SARS-CoV-2 strains JPN/TY/WK-521 and NCGM-nCoV-05-2N; experiment: microbe, parasite or virus in culture; format: cell-based; conditions: for IC50: Severe acute respiratory syndrome coronavirus 2, Vero C1008, read-out: IC50 against SARS-CoV-2
SARS-CoV-2 = format: cell-based

Row | SMILES | reasonable effects against SARS-CoV-2 in the assays [1] | IC50 [1] [nM] | also measured
1 | CCN(CCO)CCCC(C)Nc1ccnc2cc(Cl)ccc12 (centres unmarked) [hydroxychloroquine] | none | – | –
2 | CC(=O)Oc1ccccc1C(=O)Nc1ncc([N+](=O)[O-])s1 [nitazoxanide] | none | – | –
3 | CCC(CC)COC(=O)[C@H](C)N[P@](=O)(OC[C@H]1O[C@@](C#N)(c2ccc3c(N)ncnn23)[C@H](O)[C@@H]1O)Oc1ccccc1 [remdesivir] | – | 2600 ± 700 | –
4 | N=C(N)c1ccc2cc(OC(=O)c3ccc(N=C(N)N)cc3)ccc2c1 [nafamostat] | none | – | –
5 | C=CCn1ccc2c(C(=O)Oc3cncc(Cl)c3)cccc21 [GRL-0820S] | – | 15000 ± 18000 | blocking of infectivity, replication and cytopathic effect of SARS-CoV-2 (SARS-CoV-2): significantly blocked the infectivity and replication; viral breakthrough (SARS-CoV-2): viral breakthrough occurred
6 | O=C(Oc1cncc(Cl)c1)c1cccc2[nH]ccc12 [GRL-0920S] | – | 2800 ± 300 | block of infectivity and cytopathic effect of SARS-CoV-2 (FIG. 1) (SARS-CoV-2): virtually completely block the infectivity and cytopathic effect; blocking of infectivity, replication and cytopathic effect of SARS-CoV-2 (SARS-CoV-2): completely blocked the infectivity, replication, and cytopathic effect
7 | NC(=O)c1nc(F)c[nH]c1=O [favipiravir] | none | – | –
8 | Cc1cccc(C)c1OCC(=O)N[C@@H](Cc1ccccc1)[C@@H](O)C[C@H](Cc1ccccc1)NC(=O)[C@H](C(C)C)N1CCCNC1=O [lopinavir] | none | – | –
9 | NC(=O)c1ncn([C@@H]2O[C@H](CO)[C@@H](O)[C@H]2O)n1 [ribavirin] | none | – | –
10 | Cc1c(O)cccc1C(=O)N[C@@H](CSc1ccccc1)[C@H](O)CN1C[C@H]2CCCC[C@H]2C[C@H]1C(=O)NC(C)(C)C [nelfinavir] | none | – | –
